Measurements reported in US9056048B2, “Synthesis and use of cationic steroids for anti-inflammatory drug therapy” (priority 2001, dated 2015).
Values after ≈ are worked out from the molar mass of the structure shown.

Key:
[1] = system: mouse lung; assay: AAV vectors co-formulated with DS or DS/D2S, intranasal instillation; type: in vivo, C57Bl/6 mice
Method: Cationic liposomes (DS/D2S) in a 1:1 mole ratio with DOPE (51 μg total lipid) were mixed with AAV (10^11 GC/dose) in equal volume at room temperature for 15 minutes prior to instillation. C57Bl/6 mice (6 to 8 weeks of age) were anesthetized by an i.p. injection of a 3:2 mixture of xylazil:ketamine. For dosing, mice were suspended from their dorsal incisors (hind quarters supported) and a dose of 10^11 GC of AAV vector was delivered as a 50 μl bolus into the nostrils.
To evaluate luciferase transgene expression, 250 μl of a 15 mg/ml luciferin solution (Caliper Life Sciences, Hopkinton, Mass.) was injected per 25 gram body mass by i.p. injection. Five minutes after luciferin injection the mice were anesthetized by an i.p. injection of a 3:2 mixture of xylazil:ketamine. Animals were imaged 15 minutes after the original luciferin injection with a high sensitivity CCD Xenogen IVIS bioluminescent imaging system (Caliper Life Sciences).
For lacZ transgene expression evaluation, lungs were harvested and inflated with a 1:1 mixture of PBS and OCT embedding compound. One lobe was then submerged in OCT, frozen in isopentane cooled with liquid nitrogen, and cryosectioned ([…]). Sections were fixed in 0.5% glutaraldehyde in PBS (Electron Microscopy Sciences, Hatfield, Pa.) for 10 minutes (4° C.) and then washed twice in PBS/1 mM MgCl2 (4° C.) and stained with X-gal substrate (5-bromo-4-chloro-3-indoyl-β-D-galactopyranoside) for 16 hours at 37° C. to reveal LacZ-positive cells. After being washed in PBS, sections were counterstained with nuclear fast red, dehydrated through a graded ethanol series and xylene, coverslipped, and imaged. The other lobe was placed in 2 ml of Lysis Buffer (Roche, Indianapolis, Ind.) and placed on ice. Directly after all samples were collected, each sample was homogenized for approximately 10 seconds. […] A mouse β-galactosidase enzyme-linked immunosorbent assay (ELISA) (Roche) was used on lung homogenates according to the manufacturer's instructions to quantitatively measure LacZ gene expression. […]

[2] = system: neutrophils in the i.p. space; assay: Thioglycollate (TG) model of inflammation; type: in vivo, BALB/c mice
Method: Male, 6- to 8-week-old (20 g) BALB/c mice, six per group, were used. […] After 30 minutes, mice were injected i.p. with 1.5 mL of 3% TG in PBS containing 1% ethanol. At 4 hour post-TG, the i.p. fluid was collected and neutrophils were counted.

[3] = system: osteoblasts; assay: In vitro bone culture inflammatory model, qRT-PCR transcripts; type: cell-based, murine; details: for reduction in IL-6 transcripts over control: qRT-PCR normalized to GAPDH; for OPG/RANKL ratio: transcripts, qRT-PCR
Method: For co-cultures with osteoblasts, bone marrow cells (1×10^5 cells/well in 96-well plates) were co-cultured with calvarial osteoblasts (1×10^4 cells/well) in α-minimal essential medium containing 10% fetal bovine serum and supplemented with 20 nM 1α, 25(OH)2D3 and 1 μM prostaglandin E2 (PGE2) for 9 days. […] Co-cultures treated with Vitamin D3 (VitD3) were treated at 20 nM.
For transcript analysis, total RNA was isolated using the Absolutely RNA microprep kit (Stratagene, La Jolla, Calif.). RNA was reverse transcribed using Superscript III reverse transcriptase and oligo(dT) (Invitrogen, Carlsbad, Calif.), and complementary DNA was purified using Qiagen's PCR purification kit (Valencia, Calif.). Complementary DNA from untreated samples was used for optimizing PCR conditions, with primers targeting the gene of interest. For the gene RANKL, the forward primer was 5′-[sequence]-3′ and the reverse primer was 5′-[sequence]-3′, for the OPG gene the forward primer was 5′-[sequence]-3′ and the reverse primer was 5′-[sequence]-3′, for the IL-6 gene the forward primer was 5′-[sequence]-3′ and the reverse primer was 5′-[sequence]-3′. In order to normalize the expression levels, GAPDH was used as a housekeeping gene with forward primer 5′-[sequence]-3′ and reverse primer 5′-[sequence]-3′. A standard curve was created using the untreated controls and the optimized PCR conditions for each set of primers on a Roche LightCycler 480 (Indianapolis, Ind.). Quantitative real-time PCR was performed using the LightCycler FastStart DNA MasterPLUS SYBR Green I kit with melting curve analysis provided by the LightCycler software.
TNF-α is utilized as an inflammatory cytokine to initiate the NF-κB pathway and subsequent effect on RANKL.

[4] = Hyaluronic acid release assay (dialysis)
Method: Hyaluronic acid sodium salt (Rooster Comb HA; Sigma) was diluted in PBS at 1 mg/ml to mimic an anionic glycosaminoglycan at a nominal interstitial concentration.

[5] = physchem; details: water
[6] = system: GRE promoter construct (pGRE-SEAP); assay: Induction of transcription from GRE (GRE-SEAP promoter construct) in 293 cells; type: cell-based
Method: 293 cells were lipofected with GRE-SEAP plasmid in triplicate using 1 μg plasmid and 6 μg Lipofectamine per well in 24-well plates. […] After 24 hr of induction, 50 μl aliquots of growth media were analyzed for alkaline phosphatase activity using the SEAP fluorogenic assay following the manufacturer's instructions.

[7] = system: mouse lungs; assay: AdV vector formulated with lipid, intranasal delivery to mouse lungs; type: in vivo, C57Bl/6 mice; design: key: 0 (normal, no inflammation); mild (+) monocytic infiltrate and congestion; +++ (extensive inflammation); details: day 7
Text: E1/E3-deleted replication-deficient, recombinant adenovirus vectors (2-4.5×10^12 GC/ml stock) expressing either a LacZ or a AlkP reporter were created as previously described in Gao et al. (1996, J. Virol. 70:8934-8943) by homologous recombination between the shuttle plasmid that carries the transgene and the 5′ end of the adenovirus genome with E1 deleted and 3′ end of H5.sub360 in which the E3 gene was inactivated by a small deletion. The recombinant viruses were propagated in 293 cells and purified by the standard CsCl gradient sedimentation method. The replication-deficient AAV2/5CBntLacZ contains the LacZ gene with a nucleus localization sequence at its N-terminus, under the transcriptional control of the chicken h-actin promoter. The AAV (2/5) vector (˜2×10^12 GC/ml stock) was produced by transcapsidation in 293 cells using a triple transfection method and purified by CsCl gradient sedimentation as described in Gao et al. (2002, Proc. Natl. Acad. Sci. USA 99:11854-11859).
C57Bl/6 mice (6 to 8 weeks of age) were anesthetized by an i.p. injection of a 3:2 mixture of xylazil (20 mg/ml):ketamine (100 mg/ml). For dosing, mice were suspended from their dorsal incisors (hind quarters supported) and a dose of 10^11 GC of AdV or AAV vector was delivered as a 50-μl bolus into the nostrils using a gel-loading tip (Finnpippette). […]

[8] = system: bovine aortic endothelial cells; assay: Lipofection of BAEC with EGFP plasmid; type: cell-based; details: alone, unconjugated
Method: Bovine aortic endothelial cells (BAEC, passage 4-13) were passaged at a 1:3 split to 24-well culture plates, and then grown to dense confluence before lipofection. Growth medium was Dulbecco's modified Eagle's medium (DMEM) containing 10% heat inactivated charcoal-filtered (to remove steroid hormones) fetal calf serum (Hyclone), 0.30 mg/ml glutamine, 150 U/ml penicillin, and 0.15 mg/ml streptomycin (Gibco). 293 cells were grown under identical conditions. The plasmids pEGFP-N3 and pGRE-SEAP (Clontech) were used for expression of EGFP or secreted alkaline phosphatase under the regulation of CMV or GRE promoters, respectively. […] In other experiments, Lipofectamine 2000 (Invitrogen), in a 1:1 (wt) ratio with nucleic acid, was used according to the manufacturer's instructions.
For fluorescence microscopy and flow cytometry, pEGFP-N3 plasmid (Clontech, Palo Alto, Calif.) was used to generate GFP as the fluorescent reporter transgene protein. Cells were transfected in 6-well plates with each condition in duplicate. One day after GFP transfection, cells were imaged and then harvested in 500 ul PBS and kept on ice until analysis. A BD Biosciences (Franklin Lakes, N.J.) FACSCalibur flow cytometer was used to obtain fluorescence data with 50,000 counts recorded per condition.
EGFP expression was calibrated using 0 to 200 ng recombinant GFP (Clontech) in 750 μl PBS. […]

## CC1C[C@H]2[C@@H]3CCC4=CC(=O)C=C[C@]4(C)[C@@]3(F)C(O)C[C@]2(C)[C@@]1(O)C(=O)CSCCCC(=N)NCCCNCCCCNCCCN.O=C(O)C(F)(F)F (stereo partly drawn) [DS, N-[3-({4-[(3-aminopropyl)amino]butyl}amino)propyl]-4-[(9-fluoro-11,17-dihydroxy-16-methyl-3,20-dioxopregna-1,4-dien-21-yl)sulfanyl]butanimidamide-TFA Salt]
[1]; AAV2/6.2, ELISA, day 28
  lacZ transgene level in lung homogenate compared to control: higher average transgene levels
[1]; AAV2/9, day 28
  luciferase luminescence in the lung: minimal luminescence in the lung
[1]; day 56, formulation at day 0, re-administration day 28
  LacZ gene expression versus AAV2/9-LacZ alone (readministered control): 2 fold
[2]; 5.85 mg/kg i.p. 30 minutes before TG, 4 hour post-TG
  reduction in neutrophil immigration versus vehicle: 60%
[2]; tested dose 5.85 mg/kg i.p.
  lethality: not lethal
[3]
  reduction in IL-6 transcripts over control: 17%
  OPG/RANKL ratio: 1.67
[4]; 24 hour period
  fraction eluted from HA: only a small fraction
[4]; in PBS
  half-life for dissociation from HA: 56 h
[4]; physiological salt buffer
  time remaining tightly bound to HA: over 24 hours
[5]
  solubility: > 100000 µg/mL
[6]; 100 nM, 293 cells
  SEAP transcription from GRE promoter: statistically significant levels of SEAP transcription
[6]; Homo sapiens, HEK293, read-out: EC50 of transcription from GRE promoter construct (pGRE-SEAP)
  EC50: 10 to 100 nM

## TNF-α
[3]
  OPG/RANKL ratio: 0.12

## C[C@@H]1C[C@H]2[C@@H]3CCC4=CC(=O)C=C[C@]4(C)[C@@]3(F)[C@@H](O)C[C@]2(C)[C@@]1(O)C(=O)CO [dexamethasone, reference compound]
[3]
  reduction in IL-6 transcripts over control: 72%
[5]
  solubility: 100 µg/mL (≈ 255 µM)
[7]
  lung inflammation score by blinded pathologist: 0

## NCCCNCCCCNCCCN [Spermine, spermine]
[8]
  gene transfer activity: no detectable gene transfer activity
